System: Serpula himantioides strain ATCC 64894
Assay: EN 113 wood block decay test, Serpula himantioides, 16 weeks
Type: cell-based
Source text: Five replicates were made per each treatment.
As shown in the above tables, the copper composition contains about 9% by weight copper, while both of the azole compositions contain about 10% by weight azole. The DQA cation was applied to the wood as a solution of 50 weight percent didecyldimethyl ammonium carbonate (DDACarbonate).
The wood samples were exposed for 16 weeks.

didecyldimethyl ammonium carbonate [DDACarbonate]
16 weeks of exposure Average weight loss % of untreated weight loss (Cu retention 0, DDACarbonate retention 0.25 Kg/m^3, 16 weeks): 84%
16 weeks of exposure Average weight loss % of untreated weight loss (Cu retention 0, DDACarbonate retention 0.5 Kg/m^3, 16 weeks): 67%
protection of wood against decay by Serpula himantioides (in words) (summary of the decay tests, 16 weeks): relatively little protection
